BindingDB's records for doi:10.1021/jm00021a005 (University of Wisconsin-Madison, 1995)
pKi: −log10 of the molar value.

Target: Peptidyl-prolyl cis-trans isomerase A, cyclophilin A (Homo sapiens) (UniProt P62937)
Assay: The compound was tested for inhibition of […] isomerase (PPIase).

Peptidyl-prolyl cis-trans isomerase A, cyclophilin A (Homo sapiens), sequence (P62937 whole entry, looked up): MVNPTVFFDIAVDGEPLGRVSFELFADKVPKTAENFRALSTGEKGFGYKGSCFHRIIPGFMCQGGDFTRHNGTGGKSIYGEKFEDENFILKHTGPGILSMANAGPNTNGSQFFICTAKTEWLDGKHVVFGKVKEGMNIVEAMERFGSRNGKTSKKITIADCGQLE

SMILES | pKi
C/C=C/CC(C)[C@@H](O)[C@H]1C(=O)N[C@@H](CC)C(=O)N(C)CC(=O)N(C)[C@@H](CC(C)C)C(=O)N[C@@H](C(C)C)C(=O)N(C)[C@H](CC(C)C)C(=O)N[C@H](Cc2ccccc2)C(=O)N[C@@H](CO)C(=O)N(C)[C@H](CC(C)C)C(=O)N(C)[C@@H](CC(C)C)C(=O)N(C)[C@H](C(C)C)C(=O)N1C (stereo partly drawn) [15-Benzyl-30-ethyl-12-hydroxymethyl-33-(1-hydroxy-2-methyl-hex-4-enyl)-6,9,18,24-tetraisobutyl-3,21-diisopropyl-1,4,7,10,19,25,28-heptamethyl-1,4,7,10,13,16,19,22,25,28,31undecaaza-cyclotritriacontan-2,5,8,11,14,17,20,23,26,29,32-undecaone] | 8.22
C/C=C/CC(C)C(O)[C@H]1C(=O)N[C@@H](CC)C(=O)N(C)[C@H](C)C(=O)N(C)[C@@H](CC(C)C)C(=O)N[C@@H](C(C)C)C(=O)N(C)[C@H](CC(C)C)C(=O)N[C@H](Cc2ccccc2)C(=O)N[C@H](C)C(=O)N(C)[C@H](CC(C)C)C(=O)N(C)[C@@H](CC(C)C)C(=O)N(C)[C@H](C(C)C)C(=O)N1C (stereo partly drawn) [15-Benzyl-30-ethyl-33-(1-hydroxy-2-methyl-hex-4-enyl)-6,9,18,24-tetraisobutyl-3,21-diisopropyl-1,4,7,10,12,19,25,27,28-nonamethyl-1,4,7,10,13,16,19,22,25,28,31undecaaza-cyclotritriacontan-2,5,8,11,14,17,20,23,26,29,32-undecaone] | 8.22
C/C=C/CC(C)[C@@H](O)[C@H]1C(=O)N[C@@H](CC)C(=O)N(C)CC(=O)N(C)[C@@H](CC(C)C)C(=O)N[C@@H](C(C)C)C(=O)N(C)[C@H](CC(C)C)C(=O)N[C@H](Cc2ccccc2)C(=O)N[C@H](C)C(=O)N(C)[C@H](CC(C)C)C(=O)N(C)[C@@H](CC(C)C)C(=O)N(C)[C@H](C(C)C)C(=O)N1C (stereo partly drawn) [15-Benzyl-30-ethyl-33-(1-hydroxy-2-methyl-hex-4-enyl)-6,9,18,24-tetraisobutyl-3,21-diisopropyl-1,4,7,10,12,19,25,28-octamethyl-1,4,7,10,13,16,19,22,25,28,31undecaaza-cyclotritriacontan-2,5,8,11,14,17,20,23,26,29,32-undecaone] | 7.48
